8 molecules from patent US6963012B2, “Diaryl ether derivative, addition salt thereof, and immunosuppressant” (Kyorin Pharmaceutical Co., Ltd., priority 2001, dated 2005) can be followed below.

Where a name gives a salt, the structure may show the parent alone.

Series [1] has as its system Host vs Graft Rejection in Mice. Briefly: Ability of test compounds to suppress host vs graft rejection in mice (popliteal lymph node weight). It is filed as in vivo, mice (C3H/HeN, BALB/c stimulation cells). The settings on record: Mus musculus. The method, then: Ability of Test Compounds to Suppress Host vs Graft Rejection in Mice
This experiment was performed according to the method described in Transplantation, 55, No.3 (1993): 578-591. Spleens were collected from 9 to 11 week old male BALB/c mice (CLEA JAPAN Inc., CHARLES RIVER JAPAN Inc., or JAPAN SLC Inc.). The spleens were placed in a phosphate-buffered saline (PBS(−), NISSUI PHARMACEUTICAL Co., Ltd.) or in an RPMI-1640 medium (GIBCO […] Inc., or IWAKI GLASS Co., Ltd.) and were either passed through a stainless steel mesh, or gently pressed between two slide glasses and then passed through a cell strainer (70 μm, Falcon), to form a cell suspension. The suspension was then centrifuged and the supernatant was discarded. An ammonium chloride-Tris isotonic buffer was added to the suspension to lyse erythrocytes. The cells were then centrifuged and washed three times in PBS (−) or RPMI-1640 medium and were resuspended in an RPMI-1640 medium. To this suspension, mitomycin C (KYOWA HAKKO KOGYO Co., Ltd.) was added to a final concentration of 25 μg/mL and the suspension was incubated for 30 minutes at 37° C. in a 5% CO2 atmosphere. The cells were again centrifuged and washed in PBS (−) or RPMI-1640 medium and were resuspended in an RPMI-1640 medium so that the medium would contain 2.5×10^8 cells/mL. This suspension served as a “stimulation cell suspension.” Using a 27G needle along with a microsyringe (Hamilton), 20 μL (5×10^6 cells/mouse) of the stimulation cell suspension was subcutaneously injected into the right hind footpad of 7 to 9 week old male C3H/HeN mice (CLEA JAPAN Inc., CHARLES RIVER JAPAN Inc., or JAPAN SLC Inc.). A group of mice was injected with RPMI-1640 medium alone to serve as normal control. 4 days after the injection, right popliteal lymph nodes were collected and were weighed on a Mettler AT201 electronic scale (METTLER TOLEDO Co., Ltd.). Each animal was intraperitoneally administered a test compound once a day for four consecutive days starting on the day of the injection of the stimulation cells (i.e., total of 4 times). Controls were administered a vehicle that has the same composition as that used in the preparation of the test compounds.

Series [2] concerns Delayed-type Hypersensitivity in Mice. Briefly: Ability of test compounds to suppress delayed-type hypersensitivity in mice (DNFB, ear thickness). The conditions noted are these: dose 3 mg/kg, orally, 30 minutes before DNFB challenge; increase in ear thickness 24 hours after the challenge. It is filed as in vivo, mice (BALB/c). The method, then:
<Experiment 2> Ability of Test Compounds to Suppress Delayed-type Hypersensitivity in Mice. […] The sensitization was done for 2 consecutive days (day 0 and day 1). On day 5, the ears of the mice were challenged with the antigen to induce delayed-type hypersensitive responses: First, the thickness of each ear was measured by the dial thickness gauge G (0.01-10 mm, OZAKI MFG Co., Ltd.). Next, a test compound was administered. 30 minutes after the administration, 10 μL of a 0.2% (v/v) DNFB solution was applied to the inner and outer surfaces of the right ear of each animal for antigen challenge. The left ear of each animal was challenged with the solvent alone. 24 hours after the challenge, the increase in the ear thickness was measured for each ear and the difference between the right and the left ears was determined for each individual. The test compound was dissolved, or suspended, in an ultra pure water and was orally administered at a dose of 0.1 mL/10 g of body weight. A control group was administered ultra pure water alone.

For `Cl.NC(CO)(CO)CCOc1ccc(Oc2cc(C(F)(F)F)cc(C(F)(F)F)c2)cc1`, the melting point is 151 to 155 °C. Molecule `CC(C)c1cccc(Oc2ccc(CCCC(N)(CO)CO)cc2)c1` [Example 150, 2-amino-2-[4-(3-isopropylphenoxy)phenyl]propyl-1,3-propanediol hydrochloride] registered an inhibition at 10 mg/kg in series [1] of 78%. In turn, `Cl.NC(CO)(CO)CCCCc1ccc(Oc2cccc(OCc3ccccc3)c2)cc1Cl` gave a melting point of 95 to 97 °C. With `Cl.NC(CO)(CO)CCCc1ccc(Oc2cccc(OCCCc3ccccc3)c2)cc1` [Example 148, 2-amino-2-[4-(3-phenylpropyloxyphenoxy)phenyl]propyl-1,3-propanediol hydrochloride], the melting point lay in the range of 95 to 98 °C. The inhibition at 3 mg/kg in series [1] stood at 78%. With `Cl.NC(CO)(CO)CCCc1ccc(Oc2cc(C(F)(F)F)cc(C(F)(F)F)c2)cc1` [Example 147, 2-amino-2-[4-(3,5-bistrifluoromethylphenoxy)phenyl]propyl-1,3-propanediol hydrochloride], the melting point is 194 to 196 °C. Testing at 10 mg/kg in series [1] gave an inhibition of 82%.

`Cl.NC(CO)(CO)CCCc1ccc(Oc2cccc(OCc3ccccc3)c2)cc1Cl` [Example 173, 2-amino-2-[4-(3-benzyloxyphenoxy)-2-chlorophenyl]propyl-1,3-propanediol hydrochloride] showed a melting point of 105 to 106 °C. In addition, the Inhibition in series [2] is listed as 64%. In addition, in series [1], 3 mg/kg produced 100% inhibition. Molecule `Cl.NC(CO)(CO)C/C=C/c1ccc(Oc2cc(C(F)(F)F)cc(C(F)(F)F)c2)cc1` came in with a melting point of 203 to 206 °C. For the molecule `Cl.NC(CO)(CO)CCc1ccc(Oc2cccc(OCc3ccccc3)c2)cc1Cl`, the melting point is 150 to 152 °C.

The melting point is the temperature, or range, at which the solid turns liquid. As usually defined, the inhibition is the percentage by which the read-out fell short of the control. Read a low inhibition as little suppression. By Inhibition is commonly meant the change of the read-out against control, counted positive when it falls.
